Here are results for 1 compound from patent US9895363B2, “Methods for modulating function of proliferating cell nuclear antigen (PCNA) and treating cancer with PCNA-targeting compounds” (University of Cincinnati, priority 2010, dated 2018).

Each structure is given as a SMILES string. “Also recorded” adds a separate entry of the source. Like-named read-outs stand apart in the source and are kept apart here.

Test [1] has as its system CT26R100 murine colon cancer cell line. Description: Growth inhibition by MTT staining, CT26R100. It counts as cell-based, Mouse.
Test [2] has as its system CT26-R500 murine colon cancer cell line. Briefly: Growth inhibition by MTT staining, CT26-R500. Type of test: cell-based. Particulars: Mouse tumor cells; cell line not given; read-out: IC50 Values, cell line cell blank (third row below UV2237). The method, then:
(§1) Growth inhibitory effects of PCNA-I1 and PCNA-I2 were assessed in human cancer cell lines, mouse cancer cell lines, immortalized mouse cell lines, and human primary cell lines. Specifically, growth inhibitory effects of PCNA-I1 and PCNA-I2 were assessed using MTT staining in the following cells lines: 1) human cancer cell lines including LNCaP (androgen receptor […]), 22Rv1, DU-145, LAPC-4, and PC-3 (androgen receptor […]) prostate cancer cells; MCF-7 and T47D breast cancer cells; A375 and MDA-MB435 melanoma cells; 2) mouse cancer cell lines including TRAMP-C2RE3 prostate cancer cells, B16 and K1735 melanoma cells, UV2237 fibrosarcoma cells, and CT-26 colon cancer cells; 3) immortalized mouse lung cell lines and mouse endothelial cell lines; and 4) primary human cell lines including umbilical endothelial cells (HUVEC, PromoCell, Heidelberg, Germany), primary bone marrow mesenchymal stem cells (HuMSC, PromoCell), primary human mammary epithelial cells (HuBrEC, Lonza, Walkersville, Md.), primary human prostate epithelial cells (HuPrEC, Lonza), and primary mouse spleen lymphocytes (isolated in this laboratory), and primary mouse bone marrow stromal cells (isolated in this laboratory). […]
(§2) IC50 values were derived from growth inhibition curves. […] Inhibition of cell growth was calculated using the formula: growth inhibition (%)=(1−A570 of treated/A570 of control)×100. […]

The subject of test [3] is LNCaP cells. Description: FACS analysis, LNCaP. It counts as cell-based, Human. To be noted: particularly at 10 μM; FIG. 16. The method, then: Fluorescence-activated cell sorting (FACS) analysis was performed on both PC-3 cells and LNCaP cells using PCNA-I1. Specifically, cells were treated with 1 or 10 μM PCNA-I1 and sampled for the flow cytometry analysis at 24 H, 48 H, and 72 H. Expression of DNA damage and apoptosis-related proteins in PC-3 cells and LNCaP cells was also determined. Cisplatin, a well-known drug that induces DNA damage and apoptosis, was included in the experiment. LNCaP cells were treated for 6 H, 12 H, or 18 H with 10 μM PCNA-I1, 10 μM cisplatin, or both.

In another test the test system is A375 melanoma cells. Description: Growth inhibition by MTT staining, A375. To be noted: A-375, 96 h, Human, treated four days. Type of test: cell-based. The protocol: as §1, §2
The test system of test [4] is PC-3 prostate cancer cells. Briefly: Growth inhibition by MTT staining, PC-3. It counts as cell-based, Human. The protocol: Growth inhibitory effects of PCNA-I1 and PCNA-I2 were assessed in human cancer cell lines, mouse cancer cell lines, immortalized mouse cell lines, and human primary cell lines. Specifically, growth inhibitory effects of PCNA-I1 and PCNA-I2 were assessed using MTT staining in the following cells lines: 1) human cancer cell lines including LNCaP (androgen receptor […]), 22Rv1, DU-145, LAPC-4, and PC-3 (androgen receptor […]) prostate cancer cells; MCF-7 and T47D breast cancer cells; A375 and MDA-MB435 melanoma cells; 2) mouse cancer cell lines including TRAMP-C2RE3 prostate cancer cells, B16 and K1735 melanoma cells, UV2237 fibrosarcoma cells, and CT-26 colon cancer cells; 3) immortalized mouse lung cell lines and mouse endothelial cell lines; and 4) primary human cell lines including umbilical endothelial cells (HUVEC, PromoCell, Heidelberg, Germany), primary bone marrow mesenchymal stem cells (HuMSC, PromoCell), primary human mammary epithelial cells (HuBrEC, Lonza, Walkersville, Md.), primary human prostate epithelial cells (HuPrEC, Lonza), and primary mouse spleen lymphocytes (isolated in this laboratory), and primary mouse bone marrow stromal cells (isolated in this laboratory). PCNA-I1 and PCNA-I2 were either provided by the University of Cincinnati Drug Discovery Center (UC-DDC, Cincinnati, Ohio) or were purchased from Chembridge Co (San Diego, Calif.), ChemDiv (San Diego, Calif.), and/or Sigma-Aldrich (St Louis, Mo.).
Growth inhibitory effects of the compounds were assessed by MTT staining as described previously by Dong et al. in In Vitro Model for Intrinsic Drug Resistance: Effects of Protein Kinase C Activators on the Chemosensitivity of Cultured Human Colon Cancer Cells; Mol. Pharmacol. 1991; 39: 563-9. Briefly, cells were cultured and treated in their respective media. Cells were plated into 96-well plates at 1000 to 5000 cells/well. After an overnight incubation, the cells were treated for four days with various concentrations (up to 10 μM) of PCNA-I1 or PCNA-I2. The live cells were stained with MTT and cells in exponential growth phase were harvested by a one to three minute treatment with a 0.25% trypsin-0.02% EDTA solution. Flasks were tapped to detach the cells, RPMI 1640-10% FBS was added, and the cell suspensions were gently agitated to produce single-cell suspensions. The cell suspensions were washed and resuspended in medium with supplements specified for different cells. Only suspensions of single cells with a viability exceeding 95% (ascertained by trypan blue exclusion) were used.
IC50 values were derived from growth inhibition curves. Data for tumor cells are a mean of five to seven experiments. Data for primary cells are a mean of three experiments. […] Inhibition of cell growth was calculated using the formula: growth inhibition (%)=(1−A570 of treated/A570 of control)×100. IC50 (the concentration that inhibited cell growth by 50%) values were also determined. For evaluation of lymphocyte growth in suspension, an Alamar blue assay was performed, wherein freshly prepared mouse spleen lymphocytes were stimulated for 72 H with 2 ug/mL concanavalin A (Sigma Chemicals, St. Louis, […].). During the last 24 H, 20 μl/well of Alamar blue (Invitrogen, Carlsbad, Calif.) was added. The fluorescence intensity was measured at 530/580 (excitation/emission) in the FLUOstar Omega microplate reader (BMG LABTECH, Cary, N.C.).
Growth inhibitory effects of PCNA-I3, PCNA-I4, PCNA-I6, PCNA-I7, PCNA-I8, PCNA-I9 and PCNA-I10 were assessed in human prostate cancer cell lines. Specifically, growth inhibitory effects of PCNA-I3, PCNA-I4, PCNA-I6, PCNA-I7, PCNA-I8, PCNA-I9 and PCNA-I10 were assessed using MTT staining in LNCaP and PC-3 cells. […]

Test [5] relates to LNCaP cells. Briefly: LNCaP tumor model in male nude mice. It counts as in vivo. The protocol: The therapeutic effects of PCNA-I1 were evaluated in LNCaP cells and 22Rv1 tumor models. LNCaP or 22Rv1 cells (1-2×10^6 cells in gelfoam) were implanted into the subcutis of male nude mice. From four to five days later, tumor-bearing mice were intraperitoneally injected with 10 mg/kg or 50 mg/kg of PCNA-I1. The therapy was continued at three times/week until termination of experiments. Control and treated tumor-bearing mice were monitored daily. Mouse body weight was recorded for toxicity evaluation twice a week and tumor size was measured using calipers twice a week. The experiments were terminated when mice in control groups were moribund. Additionally, to further evaluate potential liver and renal toxicity of PCNA-I1, the blood of tumor-bearing mice were sampled after the treatment with PCNA-I1 for 8 weeks.

The subject of a further test is Normal Cells. Briefly: Growth inhibition, mean over normal cells. Type of test: cell-based. The protocol: as §1, §2
The test system of test [6] is primary mouse bone marrow stromal cells. Description: Growth inhibition, mouse bone marrow stromal cells. Type of test: cell-based. To be noted: normal cells, read-out: IC50 Values, Bone Marrow Stroma Cells. The protocol:
as §1, §2

In the next test the test system is B16 melanoma cells. Description: Growth inhibition by MTT staining, B16. To be noted: B16, 96 h, Mouse, treated four days. Type of test: cell-based. The protocol:
as §1, §2

Turning to `Cc1ccsc1C(=O)N/N=C/c1ccc2ccccc2c1O` [PCNA-I1], the IC50 in test [1] (Mouse tumor cells, cell line not given, read-out: IC50 Values, cell line cell blank (second row below UV2237)) came to 80 nM; in test [2], 70 nM; with A375 melanoma cells it was 290 nM; in test [4] (96 h, Table II, Human tumor cells, MTT, treated four days, mean of five to seven experiments, read-out: IC50 Values, PC-3), 240 nM; in test [4] (Homo sapiens, FIG. 2(C), read-out: IC50, PC-3), 250 nM; in the test with Normal Cells (mean over all normal cells, read-out: IC50 Values, Normal Cells, Mean ± SD) it was 1430 ± 450 nM. The IC50 in [6] came to 1900 nM; in the test on B16 melanoma cells it was 350 nM. Further, the “Sensitivity of multidrug resistant CT26R100 and CT26-R500 cells relative to parental CT26 cells” value in test [1] (cells overexpress P-glycoprotein, MDR phenotype) is “even more sensitive to PCNA-I1 than the parental CT26 cells; also recorded: as susceptible as the parental CT-26 cells”. Besides, in the test with LNCaP cells [3], the “Apoptosis, LNCaP (sub-G1 population)” value is recorded as “induced significant apoptosis”. In addition, the “Tumor eradication, LNCaP model” value with LNCaP cells [5] (50 mg/kg i.p., three times/week) is on record as “eradication of LNCaP tumors in some mice”. In addition, the “Tumor growth, LNCaP model” value with LNCaP cells [5] (10 or 50 mg/kg i.p., three times/week) was “retarded tumor growth”. In the test on LNCaP cells [5] (LNCaP tumor, 10 mg/kg three times/week, FIG. 22), the “PCNA expression in tumor (immunohistochemistry)” value is given as “reduced PCNA expression”. The “Concentrations inhibiting growth of normal cells by 50% relative to those for tumor cells” value in the test on Normal Cells (normal vs tumor cells, p<0.001) is “approximately 8 times”.
